Laboratory results published in PMC11111408, “Concurrent inhibition of oncogenic and wild-type RAS-GTP for cancer therapy” (Nature, 2024).
Like-named read-outs stand apart in the source and are kept apart here.

Tested on: panel of 183 cancer cell lines
Assay: Cell panel of 183 cancer cell lines, viability (CTG) at Crown Bioscience
Type: cell-based
Details: Homo sapiens
Text: The panel consisted of cell lines with any substitution at position 12 of KRAS, NRAS or HRAS (KRAS(G12X), NRAS(G12X), HRAS(G12X)); substitutions in KRAS, NRAS or HRAS at any position other than 12, 13 and 61 (KRAS(other/VUS), NRAS(other/VUS), HRAS(other/VUS)); other oncogenic mutations in the RAS pathway (ABL1, ALK, ARAF, BRAF, CBL, EGFR, ERBB2, ERBB3, ERBB4, ERRFI1, FGFR1, FGFR2, FGFR3, FGFR4, FLT3, HRAS, IGF1R, JAK2, KIT, MAP2K1, MAP2K2, MAPK1, MET, NF1, NRAS, NTRK1, NTRK2, NTRK3, PDGFRA, PTPN11, RAC1, RAF1, RASA1, RET, RIT1, ROS1 and SOS1); and no oncogenic mutations in the RAS pathway. […] Cells were incubated for 120 h, and cell viability was determined using the CellTiter-Glo Luminescent Cell Viability Assay (CTG) (Promega, G7572) according to the manufacturer’s instructions.

`CCn1c(-c2cc(N3CCN(C4CC4)CC3)cnc2[C@H](C)OC)c2c3cc(ccc31)-c1csc(n1)C[C@H](NC(=O)[C@H]1[C@@H]3COC[C@@H]31)C(=O)N1CCC[C@H](N1)C(=O)OCC(C)(C)C2` [RMC-7977] was tested, and the EC50 (OVCAR-5, read-out: RMC-7977 EC50 (M), OVCAR5, KRAS G12V, Ovary) was 1.02e-09 M, the EC50 (OVCAR-8, read-out: RMC-7977 EC50 (M), OVCAR8, KRAS P121H, Ovary) was > 1e-06 M and the EC50 (PANC-1, read-out: RMC-7977 EC50 (M), PANC1, KRAS G12D, Pancreas) was 1.66e-09 M. For the same compound, the EC50 (PANC-03-27, read-out: RMC-7977 EC50 (M), PANC0327, KRAS G12V, Pancreas) was 3.39e-10 M, the EC50 (PL45, read-out: RMC-7977 EC50 (M), PL45, KRAS G12D, Pancreas) was 3.31e-08 M and the EC50 (PSN1, read-out: RMC-7977 EC50 (M), PSN1, KRAS G12R, Pancreas) was 3.24e-09 M. For the same compound, the EC50 (PTPN11^MUT cell lines, read-out: median EC50) was 7.95e-09 M, the EC50 (Panc 05.04, read-out: RMC-7977 EC50 (M), PANC0504, KRAS G12D, Pancreas) was 1.62e-09 M and the EC50 (Panc1005, read-out: RMC-7977 EC50 (M), PANC1005, KRAS G12D, Pancreas) was 2.34e-09 M. The EC50 (RAS pathway wild-type (WT) cell lines, read-out: median EC50) was 7.15e-08 M, the EC50 (RL95-2, read-out: RMC-7977 EC50 (M), RL952, HRAS Q61H, Uterus) was 4.57e-09 M and the EC50 (RT112/84, read-out: RMC-7977 EC50 (M), RT11284, FGFR fusion, Bladder) was 4.87e-09 M. The EC50 (SCC-9, read-out: RMC-7977 EC50 (M), SCC9, HRAS L133R, HN/Tongue) was 1.23e-08 M, the EC50 (SHP77, read-out: RMC-7977 EC50 (M), SHP77, KRAS G12V, Lung) was > 1e-06 M and the EC50 (SK-BR-3, read-out: RMC-7977 EC50 (M), SKBR3, MET amp, Breast) was > 1e-06 M. For the same compound, the EC50 (SK-CO-1, read-out: RMC-7977 EC50 (M), SKCO1, KRAS G12V, Large intestine/Colorectum) was 1.05e-09 M, the EC50 (SK-LMS-1, read-out: RMC-7977 EC50 (M), SKLMS1, NF1 LOF, Vulva) was 6.33e-09 M and the EC50 (SK-LU-1, read-out: RMC-7977 EC50 (M), SKLU1, KRAS G12D, Lung) was > 1e-06 M. It also gave an EC50 (SK-MEL-2, read-out: RMC-7977 EC50 (M), SKMEL2, NRAS Q61R, Skin) of 9.12e-09 M, an EC50 (SK-N-AS, read-out: RMC-7977 EC50 (M), SKNAS, NRAS Q61K, Brain&Nerves) of 1.91e-09 M and an EC50 (SK-N-FI, read-out: RMC-7977 EC50 (M), SKNFI, RAS pathway WT, Brain&Nerves) of 3.82e-08 M. The EC50 (SK-N-SH, read-out: RMC-7977 EC50 (M), SKNSH, NRAS Q61K, Brain&Nerves) was 2.4e-07 M, the EC50 (SK-OV-3, read-out: RMC-7977 EC50 (M), SKOV3, RAS pathway WT, Ovary) was 5.38e-08 M and the EC50 (SNU1, read-out: RMC-7977 EC50 (M), SNU1, KRAS G12D, Stomach) was 7.76e-09 M. The EC50 (SNU668, read-out: RMC-7977 EC50 (M), SNU668, KRAS Q61K, Stomach) was 4.57e-09 M, the EC50 (SNU-5, read-out: RMC-7977 EC50 (M), SNU5, MET amp, Stomach) was 3.86e-09 M and the EC50 (SNU-387, read-out: RMC-7977 EC50 (M), SNU387, NRAS Q61K, Liver) was 5.01e-09 M. The EC50 (SNU-398, read-out: RMC-7977 EC50 (M), SNU398, RAS pathway WT, Liver) was > 1e-06 M, the EC50 (SNU-601, read-out: RMC-7977 EC50 (M), SNU601, KRAS G12D, Stomach) was 3.09e-09 M and the EC50 (SU-DHL-1, read-out: RMC-7977 EC50 (M), SUDHL1, ALK fusion, Blood/lymphoma) was 7.61e-08 M. For the same compound, the EC50 (SU.86.86, read-out: RMC-7977 EC50 (M), SU8686, KRAS G12D, Pancreas) was 2.45e-09 M, the EC50 (SUM-159-PT, read-out: RMC-7977 EC50 (M), SUM159PT, HRAS G12D, Breast) was 2.45e-09 M and the EC50 (SW48, read-out: RMC-7977 EC50 (M), SW48, HRAS G161R, Large intestine/Colorectum) was > 1e-06 M. It also gave an EC50 (SW480, read-out: RMC-7977 EC50 (M), SW480, KRAS G12V, Large intestine/Colorectum) of 2.57e-09 M, an EC50 (SW626, read-out: RMC-7977 EC50 (M), SW626, KRAS G12V, Ovary) of 1.82e-09 M and an EC50 (SW684, read-out: RMC-7977 EC50 (M), SW684, NF1 LOF, Soft tissue) of 3.68e-08 M. It also gave an EC50 (SW756, read-out: RMC-7977 EC50 (M), SW756, KRAS G12C, Ovary) of 1.17e-08 M, an EC50 (SW780, read-out: RMC-7977 EC50 (M), SW780, FGFR fusion, Bladder) of 5e-09 M and an EC50 (SW837, read-out: RMC-7977 EC50 (M), SW837, KRAS G12C, Large intestine/Colorectum) of 1.7e-09 M. The EC50 (SW900, read-out: RMC-7977 EC50 (M), SW900, KRAS G12V, Lung) was 4.07e-09 M, the EC50 (SW948, read-out: RMC-7977 EC50 (M), SW948, KRAS Q61L, Large intestine/Colorectum) was 1.45e-08 M and the EC50 (SW 1116, read-out: RMC-7977 EC50 (M), SW1116, KRAS G12A, Large intestine/Colorectum) was 1.82e-08 M. The EC50 (SW1271, read-out: RMC-7977 EC50 (M), SW1271, NRAS Q61R, Lung) was 2.19e-09 M, the EC50 (SW1463, read-out: RMC-7977 EC50 (M), SW1463, KRAS G12C, Large intestine/Colorectum) was 7.59e-09 M and the EC50 (SW1573, read-out: RMC-7977 EC50 (M), SW1573, KRAS G12C, Lung) was > 1e-06 M. It also gave an EC50 (SW1783, read-out: RMC-7977 EC50 (M), SW1783, RAS pathway WT, Brain&Nerves) of 4.53e-08 M, an EC50 (SW1990, read-out: RMC-7977 EC50 (M), SW1990, KRAS G12D, Pancreas) of 1.02e-09 M and an EC50 (SW-403, read-out: RMC-7977 EC50 (M), SW403, KRAS G12V, Large intestine/Colorectum) of 1.15e-09 M. It also gave an EC50 (SW-620, read-out: RMC-7977 EC50 (M), SW620, KRAS G12V, Large intestine/Colorectum) of 9.55e-10 M, an EC50 (TOV21G, read-out: RMC-7977 EC50 (M), TOV21G, KRAS G13C, Ovary) of 1.41e-08 M and an EC50 (U-87 MG, read-out: RMC-7977 EC50 (M), U87MG, NF1 LOF, Brain&Nerves) of 2.81e-08 M. It also gave an EC50 (U-118-MG, read-out: RMC-7977 EC50 (M), U118MG, ROS1 fusion, GBM) of 5.95e-08 M, an EC50 (UMUC3, read-out: RMC-7977 EC50 (M), UMUC3, KRAS G12C, Bladder) of 4.17e-10 M and an EC50 (cell lines with NF1 loss of function and PTPN11 mutations, read-out: median EC50) of 2.81e-08 M. For the same compound, the EC50 (cell lines with mutationally activated RTKs (RTK^MUT/fusion), read-out: median EC50) was 6.14e-09 M, the EC50 (cell lines with wild-type MET gene amplification (MET^AMP), read-out: median EC50) was 6.61e-09 M and the EC50 (non-G12 mutant KRAS cell lines, read-out: median EC50) was 2.51e-08 M. The EC50 (read-out: RMC-7977 EC50 (M), AGS, KRAS G12D, Lung) was 1.15e-09 M, the EC50 (read-out: RMC-7977 EC50 (M), ASH3, NRAS Q61R, HN/Thyroid) was 9.77e-09 M and the EC50 (read-out: RMC-7977 EC50 (M), HCC2279, EGFR mut, Lung) was 4.52e-09 M.
